The text below walks through data of patent publication US6849632B2, “Heteroaryl alkyl piperazine derivatives” (CV Therapeutics, Inc., priority 2000, dated 2005).

Several values for one entry are separate records, joined by “and”; a condition that tells them apart may be missing. Equal values may be shown once.

The first assay concerns mitochondrial fatty acid oxidation using palmitoyl CoA as substrate. Description: Palmitoyl CoA oxidation in isolated rat heart mitochondria. Format: biochemical. To be noted: 50 μm compound, 15 min at 30° C. The method, then: Rat heart mitochondria were isolated by the method of Nedergard and Cannon (Methods in Enzymol. 55, 3, 1979). Palmitoyl CoA oxidation—The Palmityl CoA oxidation was carried out in a total volume of 100 micro liters containing the following agents: 110 mM KCl, 33 mM Tris buffer at pH 8, 2 mM KPi, 2 mM MgCl2, 0.1 mM EDTA, 14.7 microM defatted BSA, 0.5 mM malic acid, 13 mM carnitine, 1 mM ADP, 52 micrograms of mitochondrial protein, and 16 microM 1-C14 palmitoyl CoA (Sp. Activity 60 mCi/mmole; 20 microCi/ml, using 5 microliters per assay). The compounds of this invention were added in a DMSO solution at the following concentrations: 100 microM, and 50 microM. In each assay, a DMSO control was used. After 15 min at 30° C., the enzymatic reaction was centrifuged (20,000 g for 1 min), and 70 microliters of the supernatant was added to an activated reverse phase silicic acid column (approximately 0.5 ml of silicic acid). The column was eluted with 2 ml of water, and 0.5 ml of the eluent was used for scintillation counting to determine the amount of C^14 trapped as C^14 bicarbonate ion.
On to `Cc1cccc(C)c1NC(=O)CN1CCN(CC(O)COc2ccc3oc(-c4cccc(C(F)(F)F)c4)nc3c2)CC1` (stereo not shown) [Compound 7, N-(2,6-dimethyl-phenyl)-2-(4-{2-hydroxy-3-[2-(3-trifluoromethylphenyl)benzoxazol-5-yloxy]-propyl}-piperazin-1-yl)acetamide], for which the “Inhibition of mitochondrial fatty acid oxidation using palmitoyl CoA as substrate - % of Control, 50 μm (%)” value amounted to 77%. Still for that read-out and setting: the figure for `Cc1cccc(C)c1NC(=O)CN1CCN(CC(O)COc2ccc3oc(-c4ccccc4)nc3c2)CC1` (stereo not shown) [Compound 60, N-(2,6-dimethylphenyl)-2-{4-[2-hydroxy-3-(2-phenyl-benzoxazol-5-yloxy)-propyl)-piperazin-1-yl}acetamide] is 61%; for `Cc1cccc(C)c1NC(=O)CN1CCN(CC(O)COc2cccc3nc(-c4ccccc4)sc23)CC1` (stereo not shown) [Compound 62] it is 62%.

`Cc1cccc(C)c1NC(=O)CN1CCN(CC(O)COc2ccc3oc(-c4ccc(C(F)(F)F)cc4)nc3c2)CC1` (stereo not shown) [Compound 68, N-(2,6-dimethylphenyl)-2-(4-{2-hydroxy-3-[2-(4-trifluoromethyl-phenyl)benzoxazol-5-yloxy]-propyl}-piperazin-1-yl)acetamide]: the “Inhibition of mitochondrial fatty acid oxidation using palmitoyl CoA as substrate - % of Control, 50 μm (%)” value turned out to be 68%.

Staying with this assay, now noted: 100 μm compound, 15 min at 30° C.
For `Cc1cccc(C)c1NC(=O)CN1CCN(CC(O)CNc2nc3ccccc3s2)CC1` (stereo not shown) [Compound 39, 2-{4-[3-(benzothiazol-2-ylamino)-2-hydroxypropyl]piperazinyl}-N-(2,6-dimethylphenyl)acetamide], the “Inhibition of mitochondrial fatty acid oxidation using palmitoyl CoA as substrate - % of Control, 100 μm (%)” value (from here on “Inhibition … 100 μm (%)”) was 27%. As for `Cc1nc2ccc(OCC(O)CN3CCN(CC(=O)Nc4c(C)cccc4C)CC3)cc2s1` (stereo not shown) [Compound 49, N-(2,6-dimethylphenyl)-2-{4-[2-hydroxy-3-(2-methyl-benzothiazol-6-yloxy)-propyl]-piperazin-1-yl}aceamide], the “Inhibition … 100 μm (%)” value came to 3%. In the case of `Cc1nc2cc(OCC(O)CN3CCN(CC(=O)Nc4ccc(O)cc4)CC3)ccc2s1` (stereo not shown) [Compound 54, 2-{4-[2-hydroxy-3-(2-methyl-benzothiazol-5-yloxy)-propyl]-piperazin-1-yl}-N-(4-hydroxy-phenyl)acetamide], the “Inhibition … 100 μm (%)” value turned out to be 81%. The same measure, in the same setting: the result for `Cc1nc2cc(OCC(O)CN3CCN(CC(=O)Nc4c(C)cccc4C)C(=O)C3)ccc2s1` (stereo not shown) [Compound 64, N-(2,6-dimethylphenyl)-2-{4-[2-hydroxy-3-(2-methyl-benzothiazol-5-yloxy)-propyl]-2-oxo-piperazin-1-yl}acetamide] reads 41%. Still for that read-out and setting: the figure for `Cc1cccc(C)c1NC(=O)CN1CCN(CC(O)COc2cccnc2)CC1` (stereo not shown) [Compound 72, N-(2,6-dimethylphenyl)-2-{4-[2-hydroxy-3-(pyridin-3-yloxy)-propyl]-piperazin-1-yl}acetamide] is 8%. Same read-out and setting: the result for `Cc1cccc(C)c1NC(=O)CN1CCN(CC(O)CNc2nc3ccccc3o2)CC1` (stereo not shown) [Compound 82, 2-{4-[3-(benzoxazol-2-ylamino)-2-hydroxypropyl]piperazinyl}-N-(2,6-dimethylphenyl)acetamide] reads 22%.

The same assay, now with this note: Table 1, read-out: IC50 (μm), inhibition of mitochondrial fatty acid oxidation using palmitoyl CoA as substrate.
For `Cc1nc2cc(OCC(O)CN3CCN(CC(=O)Nc4ccc(O)cc4)CC3)ccc2s1` (stereo not shown) [Compound 54, 2-{4-[2-hydroxy-3-(2-methyl-benzothiazol-5-yloxy)-propyl]-piperazin-1-yl}-N-(4-hydroxy-phenyl)acetamide], the IC50 was roughly 8 µM.

The assay is the same for the next values; noted with them: Table IA, read-out: Effect on Palmitoyl CoA Oxidation (IC50).
Consider “2-(4-{(2S)-3-[2-(4-chlorophenyl)benzoxazol-5-yloxy]-2-hydroxypropyl}piperazinyl)-N-[2-(hydroxymethyl)-6-methylphenyl]acetamide”, for which the IC50 is 12 µM and 20 µM. The same measure, in the same setting: the figure for “2-(4-{(2S)-3-[2-(4-chlorophenyl)benzoxazol-5-yloxy]-2-hydroxypropyl}piperazinyl)-N-[4-(trifluoromethyl)phenyl]acetamide” is 12.9 µM; for “2-((3S)-4-{(2S)-3-[2-(2-chlorophenyl)benzoxazol-5-yloxy]-2-hydroxy-propyl}-3-methylpiperazinyl)-N-(2,6-dimethylphenyl)acetamide” it is 19 µM; for “2-((3S)-4-{(2S)-3-[2-(3-fluorophenyl)benzoxazol-5-yloxy]-2-hydroxy-propyl}-3-methylpiperazinyl)-N-(2,6-dimethylphenyl)acetamide” it is 16 µM. “2-{4-[(2R)-2-hydroxy-3-(2-methylbenzothiazol-5-yloxy)propyl]-3,3-dimethylpiperazinyl}-N-(2,6-dimethylphenyl)acetamide”: the IC50 was determined as 0.45 µM. On the same count and under the same terms, the figure for “2-{4-[(2S)-2-hydroxy-3-(2-methylbenzothiazol-5-yloxy)propyl]piperazinyl}-N-(3-phenoxyphenyl)acetamide” is 0.39 µM; for “2-{4-[(2S)-2-hydroxy-3-(2-methylbenzothiazol-5-yloxy)propyl]piperazinyl}-N-(4-methylphenyl)acetamide” it is 1.7 µM; for “2-{4-[(2S)-2-hydroxy-3-(2-methylbenzothiazol-5-yloxy)propyl]piperazinyl}-N-(4-phenylphenyl)acetamide” it is 0.46 µM. Still for that read-out and setting: the figure for “2-{4-[(2S)-2-hydroxy-3-(2-methylbenzothiazol-5-yloxy)propyl]piperazinyl}-N-[4-(4-chlorophenoxy)phenyl]acetamide” is 2 µM.

For “2-{4-[(2S)-2-hydroxy-3-(2-methylbenzothiazol-5-yloxy)propyl]piperazinyl}-N-[4-(trifluoromethyl)phenyl]acetamide”, the half-inhibitory concentration (IC50) came to 7.6 µM. In the case of “2-{4-[(2S)-2-hydroxy-3-(2-methylbenzothiazol--yloxy)propyl]piperazinyl}-N-(4-phenoxyphenyl)acetamide”, the IC50 worked out at 0.33 µM.

In the case of “2-{4-[(2S)-2-hydroxy-3-(2-phenylbenzoxazol-5-yloxy)propyl]piperazinyl}-N-(3-phenylphenyl)acetamide”, the IC50 turned out to be 26 µM. Still for that read-out and setting: the figure for “2-{4-[(2S)-2-hydroxy-3-(2-phenylbenzoxazol-5-yloxy)propyl]piperazinyl}-N-(4-phenoxyphenyl)acetamide” is 11.3 µM.

Consider “2-{4-[(2S)-3-(2-cyclohexylbenzothiazol-5-yloxy)-2-hydroxypropyl]piperazinyl}-N-(2,6-dimethylphenyl)acetamide”, for which the IC50 amounted to 6.5 µM.

As for “2-{(3S)-4-[(2S)-2-hydroxy-3-(2-methylbenzothiazol-5-yloxy)propyl]-3-methylpiperazinyl}-N-(4-cyanophenyl)acetamide”, the IC50 came out at 0.41 µM. As for `Cc1cccc(C)c1NC(=O)CN1CCN(C[C@H](O)COc2ccc3oc(-c4cccc(C(F)(F)F)c4)nc3c2)CC1` [2-[4-((2S)-2-hydroxy-3-{2-[3-(trifluoromethyl)phenyl]benzoxazol-5-yloxy}propyl)piperazinyl]-N-(2,6-dimethylphenyl)acetamide], the IC50 was found to be 13 µM. Same read-out and setting: the result for `Cc1nc2cc(OC[C@H](O)CN3CCN(CC(=O)Nc4c(C)cccc4C)C[C@@H]3C)ccc2s1` [2-{4-[(2R)-2-hydroxy-3-(2-methylbenzothiazol-5-yloxy)propyl](3S)-3-methylpiperazinyl}-N-(2,6-dimethylphenyl)acetamide] reads 5 µM; that for `Cc1nc2cc(OC[C@H](O)CN3CCN(CC(=O)Nc4c(C)cccc4C)CC3)ccc2s1` [2-{4-[(2R)-2-hydroxy-3-(2-methylbenzothiazol-5-yloxy)propyl]piperazinyl}-N-(2,6-dimethylphenyl)acetamide], 4 µM. As to `Cc1nc2cc(OC[C@@H](O)CN3CCN(CC(=O)Nc4c(C)cccc4C)CC3)ccc2s1` [2-{4-[(2S)-2-hydroxy-3-(2-methylbenzothiazol-5-yloxy)propyl]piperazinyl}-N-(2,6-dimethylphenyl)acetamide], the IC50 came to 8 µM. On the same count and under the same terms, the figure for `Cc1nc2cc(OC[C@@H](O)CN3CCN(CC(=O)Nc4cccc(-c5ccccc5)c4)CC3)ccc2s1` [2-{4-[(2S)-2-hydroxy-3-(2-methylbenzothiazol-5-yloxy)propyl]piperazinyl}-N-(3-phenylphenyl)acetamide] is 0.18 µM. Same read-out and setting: the result for `Cc1nc2cc(OC[C@H](O)CN3CCN(CC(=O)Nc4c(C)cccc4C)C[C@H]3C)ccc2s1` [2-{(3R)-4-[(2R)-2-hydroxy-3-(2-methylbenzothiazol-5-yloxy)propyl]-3-methylpiperazinyl}-N-(2,6-dimethylphenyl)acetamide] reads 10 µM; that for `Cc1nc2cc(OC[C@@H](O)CN3CCN(CC(=O)Nc4c(C)cccc4C)C[C@H]3C)ccc2s1` [2-{(3R)-4-[(2S)-2-hydroxy-3-(2-methylbenzothiazol-5-yloxy)propyl]-3-methylpiperazinyl}-N-(2,6-dimethylphenyl)acetamide], 2 µM. In the case of `Cc1nc2cc(OC[C@@H](O)CN3CCN(CC(=O)Nc4c(C)cccc4C)C[C@@H]3C)ccc2s1` [2-{(3S)-4-[(2S)-2-hydroxy-3-(2-methylbenzothiazol-5-yloxy)propyl]-3-methylpiperazinyl}-N-(2,6-dimethylphenyl)acetamide], the IC50 is 0.2 µM.
